Laboratory results taken from US7229651B2, “Dietary supplements containing natural ingredients” (Melaleuca, Inc., priority 1998, dated 2007).

Assays:
[1] = tested on: platelet activity; conditions: aspirin, blood aggregometry test; cited from earlier work
[2] = tested on: in vivo platelet activity (acute platelet thrombus formation); conditions: cited from earlier work
[3] = tested on: LDL cholesterol; assay: Copper ion catalysed LDL cholesterol oxidation (conjugated dienes at 234 nm, lag time); format: biochemical, human
From the text: LDL cholesterol oxidation or protection therefrom can be determined by several methods. Kleinveld et al., Clin. Chem., 38(10):2066–2072 (1992) describes the methods for the LDL oxidation experiments described and used herein. A preferred way to practice the method encompasses extracting LDL cholesterol from whole blood samples collected from a subject using standard techniques. The extracted LDL cholesterol is divided into control and experimental samples. LDL oxidation is catalyzed by adding a copper ion solution to each LDL cholesterol sample. Copper ions are known to catalyze and enhance LDL cholesterol oxidation. […]
Copper ions accelerate the production of conjugated dienes in LDL cholesterol oxidation, which absorb light at 234 nm. Therefore, LDL cholesterol oxidation is monitored by following the increase in absorbance at 234 nm as a function of time as shown in FIG. 6. […]
As described above, LDL cholesterol oxidation is commonly measured by observing absorbance at 234 nm (Abs234nm) as a function of time while the LDL cholesterol is exposed to oxidative conditions. The antioxidant effectiveness of PROVEXCV™ and other substances was determined.
LDL cholesterol was prepared from human volunteer blood samples. […] To each sample a measured amount of copper ions was added.
After mixing, the Abs234nm of each solution was then monitored as a function of time. […]

Row | Compound | decrease of platelet activity, collagen stimulated [1] | dogs with renewed CFR's on epinephrine infusion ([2]; after abolishment of CFR's with 5–10 mg/kg of aspirin) | effect on CFR's ([2]; aspirin, Folts model, literature) | dosage at which platelet activity is inhibited ([2]; aspirin, known value) | reactivation of inhibited platelet activity on epinephrine ([2]; aspirin, epinephrine 0.2 μg/Kg/min intravenously) | lag time before LDL oxidation begins vs native LDL ([3]; Vitamin E 5.3 mg/L, CuCl2 5 μmol/L, 30° C., FIG. 8) | time LDL cholesterol protected from oxidation (lag time) ([3]; vitamin E at the described concentration, copper ions)
1 | CC(=O)Oc1ccccc1C(=O)O [aspirin] | 30–40% | 50–60 % of dogs | eliminates CFR's | 5 mg/kg | can be reactivated |  | 
2 | vitamin E |  |  |  |  |  | delayed | about 95 minutes
